Data on 16 molecules can be found in ChEMBL document CHEMBL5550081, “Is it still worth renewing nucleoside anticancer drugs nowadays?” (Eur J Med Chem, 2024).

SMILES strings stand for the structures.

Experiment [1] has as its system MDA-MB-231. The experiment can be described thus: Cytotoxicity against human MDA-MB-231 cells assessed as reduction in cell growth incubated for 24 hrs by MTT assay. It counts as functional, cell-based. The note with it: MDA-MB-231, 24 h. On the technique in general: Tetrazolium assays rely on reduction of a dye to a coloured formazan, in cell work by metabolically active cells.

In experiment [2] the test system is A549. The experiment can be described thus: Cytotoxicity against human A549 cells assessed as reduction in cell growth incubated for 24 hrs by MTT assay. It counts as functional, cell-based. The note with it: A549, 24 h.
Experiment [3] relates to MCF7. The experiment can be described thus: Cytotoxicity against human MCF7 cells assessed as reduction in cell growth incubated for 24 hrs by MTT assay. Type of experiment: functional, cell-based. The note with it: MCF7, 24 h.
Another experiment deals with SNU-638. The experiment can be described thus: Antiproliferative activity against human SNU-638 cells assessed as reduction in cell growth incubated for 72 hrs by SRB assay. As to conditions: SNU-638, 72 h. Type of experiment: functional, cell-based.
Experiment [4] concerns HCT-116. The experiment can be described thus: Antiproliferative activity against human HCT-116 cells assessed as reduction in cell growth incubated for 72 hrs by SRB assay. It counts as functional, cell-based. The note with it: HCT-116, 72 h. In general terms: Sulforhodamine B stains cellular protein and so reports cell mass.
For experiment [5], the system named is PC-3. The experiment can be described thus: Antiproliferative activity against human PC-3 cells assessed as reduction in cell growth incubated for 72 hrs by SRB assay. Type of experiment: functional, cell-based. As to conditions: PC-3, 72 h.
In experiment [6] the test system is MDA-MB-231. The experiment can be described thus: Antiproliferative activity against human MDA-MB-231 cells assessed as reduction in cell growth incubated for 72 hrs by SRB assay. The note with it: MDA-MB-231, 72 h. It counts as functional, cell-based.
The subject of experiment [7] is SK-HEP1. The experiment can be described thus: Antiproliferative activity against human SK-HEP1 cells assessed as reduction in cell growth incubated for 72 hrs by SRB assay. As to conditions: SK-HEP1, 72 h. It counts as functional, cell-based.
Experiment [8] concerns A549. The experiment can be described thus: Antiproliferative activity against human A549 cells assessed as reduction in cell growth incubated for 72 hrs by SRB assay. Type of experiment: functional, cell-based. As to conditions: A549, 72 h.
The next experiment has as its system SARS-CoV-2. The experiment can be described thus: Antiviral activity against SARS-CoV-2 infected in African green monkey Vero E6 cells assessed as inhibition of viral replication by qRT-PCR analysis. It counts as functional, organism-based. The note with it: Severe acute respiratory syndrome coronavirus 2, Vero C1008. In general terms: In qPCR the cycle at which signal appears reflects the starting amount.

In experiment [9] the test system is SK-HEP1. The experiment can be described thus: Cytotoxicity against human SK-HEP1 cells. It counts as functional, cell-based.
In experiment [10] the test system is A549. The experiment can be described thus: Cytotoxicity against human A549 cells. Type of experiment: functional, cell-based.
The test system of experiment [11] is HCT-116. The experiment can be described thus: Cytotoxicity against human HCT-116 cells. It counts as functional, cell-based.
The subject of experiment [12] is PANC-1. The experiment can be described thus: Antiproliferative activity against human PANC-1 cells assessed as reduction in cell viability incubated for 24 hrs by MTT assay. Type of experiment: functional, cell-based. As to conditions: PANC-1, 24 h.
The next experiment deals with L929. The experiment can be described thus: Cytotoxicity against mouse L929 cells assessed as reduction in cell viability. Type of experiment: functional, cell-based.
For experiment [13], the system named is HeLa. The experiment can be described thus: Cytotoxicity against human HeLa cells. It counts as functional, cell-based.
The next experiment relates to Ishikawa. The experiment can be described thus: Cytotoxicity against human Ishikawa cells. Type of experiment: functional, cell-based.
Experiment [14] deals with HeLa. The experiment can be described thus: Antiproliferative activity against human HeLa cells assessed as reduction in cell viability incubated for 24 hrs by MTT assay. It counts as functional, cell-based.
A further experiment has as its system Z-138. The experiment can be described thus: Antiproliferative activity against human Z138 cells assessed as cell growth inhibition incubated for 48 hrs by MTT assay. Type of experiment: functional, cell-based. As to conditions: Z-138, 48 h.
The target of the next experiment is PRMT5/MEP50 complex (Homo sapiens, UniProt O14744). The experiment can be described thus: Inhibition of PRMT5/MEP50 (unknown origin). It counts as cell-based, HCC4006.
In experiment [15] the test system is MCF7. The experiment can be described thus: Antiproliferative activity against human MCF7 cells assessed as cell growth inhibition incubated for 48 hrs by MTT assay. Type of experiment: functional, cell-based. As to conditions: MCF7, 48 h.
The next experiment deals with IMR-32. The experiment can be described thus: Cytotoxicity against human IMR-32 cells assessed as reduction in cell viability incubated for 48 hrs by MTT assay. Type of experiment: functional, cell-based. As to conditions: IMR-32, 48 h.
The subject of experiment [16] is PC-3. The experiment can be described thus: cells. As to conditions: Homo sapiens, PC-3, 48 h.
Experiment [17] concerns PC-3. The experiment can be described thus: Antiproliferative activity against human PC-3 cells assessed as reduction in cell growth incubated for 24 hrs by MTT assay. It counts as functional, cell-based. As to conditions: PC-3, 24 h.
In experiment [18] the test system is MCF7. The experiment can be described thus: cells. The note with it: Homo sapiens, MCF7, 48 h.
The subject of a further experiment is U-937. The experiment can be described thus: Cytotoxicity against human U-937 cells assessed as reduction in cell growth incubated for 72 hrs by MTT assay. As to conditions: U-937, 72 h. Type of experiment: functional, cell-based.
In experiment [19] the test system is HCT-116. The experiment can be described thus: Cytotoxicity against human HCT-116 cells assessed as reduction in cell growth incubated for 72 hrs by MTT assay. Type of experiment: functional, cell-based. As to conditions: HCT-116, 72 h.
Experiment [20] can be described thus: Inhibition of Hepatitis C virus NS5B polymerase. Also on record: species or system Hepacivirus hominis.
Experiment [21] concerns MCF7. The experiment can be described thus: Cytotoxicity against human MCF7 cells assessed as reduction in cell viability measured for 48 hrs by MTT assay. It counts as functional.
Experiment [22] has as its system A549. The experiment can be described thus: Cytotoxicity against human A549 cells assessed as reduction in cell viability measured for 48 hrs by MTT assay. Type of experiment: functional.
Experiment [23] has as its system MDA-MB-231. The experiment can be described thus: Anticancer activity against human MDA-MB-231 cells. Type of experiment: functional, cell-based.
Experiment [24] concerns PANC-1. The experiment can be described thus: Cytotoxicity against human PANC-1 cells. It counts as functional.
The subject of a further experiment is U-87 MG. The experiment can be described thus: Cytotoxicity against human U-87 MG cells. Type of experiment: functional, U-87MG ATCC.

Sequence of PRMT5/MEP50 complex (O14744 whole entry): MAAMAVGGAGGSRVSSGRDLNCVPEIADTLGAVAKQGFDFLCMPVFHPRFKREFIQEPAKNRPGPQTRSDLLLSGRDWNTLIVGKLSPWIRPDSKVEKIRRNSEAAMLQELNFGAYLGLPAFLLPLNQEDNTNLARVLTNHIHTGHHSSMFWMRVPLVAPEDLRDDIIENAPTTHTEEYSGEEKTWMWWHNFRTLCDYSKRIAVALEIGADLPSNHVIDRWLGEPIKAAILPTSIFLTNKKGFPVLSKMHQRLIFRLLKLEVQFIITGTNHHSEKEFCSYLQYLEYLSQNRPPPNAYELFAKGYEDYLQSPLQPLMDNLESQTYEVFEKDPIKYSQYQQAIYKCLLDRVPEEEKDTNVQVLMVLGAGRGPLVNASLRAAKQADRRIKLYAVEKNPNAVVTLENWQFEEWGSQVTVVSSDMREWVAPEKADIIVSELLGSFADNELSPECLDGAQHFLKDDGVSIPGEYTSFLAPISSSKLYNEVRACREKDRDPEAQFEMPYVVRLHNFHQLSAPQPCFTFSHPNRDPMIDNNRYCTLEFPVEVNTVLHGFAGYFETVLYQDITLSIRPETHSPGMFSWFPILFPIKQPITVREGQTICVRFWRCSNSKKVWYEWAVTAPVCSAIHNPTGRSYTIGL
Sequence of PRMT5/MEP50 complex (Q9BQA1 whole entry, further chain): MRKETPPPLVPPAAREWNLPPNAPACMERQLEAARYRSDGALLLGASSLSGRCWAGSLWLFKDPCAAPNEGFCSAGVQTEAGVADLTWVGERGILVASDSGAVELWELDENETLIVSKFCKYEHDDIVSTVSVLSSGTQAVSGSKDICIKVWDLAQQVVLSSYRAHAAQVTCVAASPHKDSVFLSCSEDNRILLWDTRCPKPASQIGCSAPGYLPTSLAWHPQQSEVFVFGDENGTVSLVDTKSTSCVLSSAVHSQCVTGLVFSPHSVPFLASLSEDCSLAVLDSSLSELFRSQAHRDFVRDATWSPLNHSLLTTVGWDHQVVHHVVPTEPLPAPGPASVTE

As to `CC(=O)Nc1ccn(-c2nnc(Cn3cnc4c3c(=O)n(C)c(=O)n4C)o2)c(=O)n1`, the IC50 (commonly the concentration that gives 50% inhibition) stood at 24700 nM in the experiment with MDA-MB-231 [1], 20400 nM in the experiment with A549 [2] and 25200 nM in the experiment on MCF7 [3].
With `C#Cc1cn([C@@H]2S[C@H](CO)[C@@H](O)[C@H]2O)c2ncnc(N)c12`, the IC50 in the experiment with SNU-638 turned out to be 30 nM; with HCT-116 [4], 30 nM; with PC-3 [5], 4 nM; with MDA-MB-231 [6] it was 50 nM; in the experiment on SK-HEP1 [7], 50 nM; in the experiment on A549 [8], 60 nM.
Take `[2H]C([2H])(O)[C@H]1O[C@@](C#N)(c2ccc3c(N)ncnn23)[C@H](O)[C@@H]1O`: the EC50 – broadly, the midpoint of the concentration-response curve – in the experiment with SARS-CoV-2 came out at 250 nM.
As to `Nc1ncnc2c1c1sc3c4sccc4sc3c1n2[C@H]1C[C@@H](O)[C@@H](CO)O1`, the IC50 in the experiment with SK-HEP1 [9] was found to be 480 nM; with A549 [10] it was 14200 nM; in the experiment with HCT-116 [11] it was 1910 nM.
Consider `O=c1[nH]c(=O)n(C[C@H](O)CO)cc1C#Cc1cc2ccccc2c2ccccc12`, for which the IC50 in the experiment with PANC-1 [12] worked out at 39300 nM; in the experiment on L929, 38400 nM; with HeLa [13], 39300 nM; in the experiment on Ishikawa, 50200 nM; in the experiment on HeLa [14] it was 39300 nM.
`Cc1ncnc2c1ccn2[C@@H]1O[C@@H]2[C@H](Cc3ccc4cc(Br)c(N)nc4c3)OC[C@]2(O)[C@H]1O`: the IC50 was 15 nM in the experiment with Z-138, 0.8 nM on PRMT5/MEP50 complex and 3 nM in the experiment on MCF7 [15].
Turning to `C[C@H](CCC(=O)OCc1cn(C[C@H]2O[C@@H](n3ccc(=O)[nH]c3=O)[C@@H]3OC(C)(C)O[C@@H]32)nn1)[C@H]1CC[C@H]2[C@@H]3[C@H](O)C[C@@H]4C[C@H](O)CC[C@]4(C)[C@H]3C[C@H](O)[C@]12C`, the IC50 with IMR-32 was 16800 nM; in the experiment on PC-3 [16] it was 17900 nM; in the experiment with PC-3 [17], 17900 nM; in the experiment on MCF7 [18], 8080 nM; in the experiment with HeLa [14], 96000 nM.
For the molecule `Nc1ncnc2c1ncn2Cc1ccc(-c2cn(CCCCCCC(=O)NO)nn2)cc1`, the half-maximal inhibitory concentration (IC50) is 1320 nM in the experiment with U-937 and 17400 nM in the experiment on HCT-116 [19].
Consider `Nc1ncnc2c1ncn2[C@@H]1OC2(CC[C@H]2O)[C@@H](O)[C@H]1O` (stereo not given in full), for which 900 nM corresponded to half-maximal inhibition at PRMT5/MEP50 complex (IC50).
`C#C[C@@]1(N)[C@H](O)[C@@H](CO)O[C@H]1n1cnc2c(=O)[nH]c(N)nc21` yielded a concentration for half-maximal inhibition (IC50) in [20] of 1100 nM.
For `CCCCCCCCCCCCc1ccc(-n2cc(CNCCO)nn2)cc1`, the IC50 with PANC-1 [12] is 4900 nM; with PC-3 [17], 11000 nM.
`C=C(N)NCCOc1cccc2c1Nc1nc(=O)n([C@@H]3O[C@H](CO)[C@@H](O)[C@H]3O)cc1O2`: the CC50 (commonly the concentration that lowers cell viability or growth by half) turned out to be 4300 nM with MCF7 [21] and 800 nM in the experiment with A549 [22].
In the experiment on MDA-MB-231 [23], `[N-]=[N+]=N[C@@H]1[C@@H](O)[C@H](n2c(-c3c4ccccc4cc4ccccc34)nc3ccccc32)O[C@@H]1CO` gave an IC50 of 420 nM.
For `COc1cccc2c1C(=O)c1c(O)c3c(c(O)c1C2=O)C[C@@](O)(C(=O)CO)C[C@@H]3O[C@H]1C[C@H](N)[C@H](O)[C@H](C)O1` [DOXORUBICIN], the CC50 worked out at 900 nM in the experiment with MCF7 [21] and 30 nM in the experiment with A549 [22]. For the same molecule, the half-maximal inhibitory concentration (IC50) with IMR-32 was 43 nM; with PC-3 [16], 336 nM; with MCF7 [18], 440 nM.
For the molecule `Nc1ccn([C@@H]2O[C@H](CO)[C@@H](O)C2(F)F)c(=O)n1` [GEMCITABINE], the IC50 in the experiment on L929 came out at 230 nM; with HeLa [13], 240 nM; in the experiment with Ishikawa, 20300 nM.
With `Nc1ccn([C@@H]2S[C@H](CO)[C@@H](O)[C@@H]2O)c(=O)n1` [THIARABINE], the CC50 in the experiment on PANC-1 [24] and in the experiment on U-87 MG was 590 nM each time.
